Reference: patent US20030050236A1, “Compounds that enhance tumor death” (The University of Chicago, priority 2000, published 2003)
Values belong to the compound of their own block, whether it stands above or below them. Where a SMILES comes first, the peptide text is derived from it. [ ]: non-standard residue; d: D form. The star is where a group is joined. Palmitoyl = CCCCCCCCCCCCCCCC(=O)*; Dap = NC[C@H](N)C(=O)O

What was measured:
caspase 3 = experiment: Caspase 3-like activity (DEVD-AFC) in LA-N-5 cells; assay type: cell-based, human; conditions: LY-294002 30 μM, C2 ceramide 25 μM
Experimental: Cells treated with drug or vehicle were harvested, washed with PBS and cell pellets lysed in 25 mM Hepes (pH 7.4), containing 2 mM dithiothreitol (DTT), 5 mM EDTA and […] digitonin. After centrifugation at 6,000 rpm for 10 min to remove cell debris and unruptured cells, an aliquot of the supernatant was added to a reaction buffer consisting of 25 mM Hepes (pH 7.4), 2 mM DTT, 5 mM EDTA, […] digitonin and 2.5 μg/ml DEVD-AFC. After 1 h incubation, the hydrolysis of substrate was quantified by fluorometry at excitation 400 mn and emission 505 nm. The blank reaction was done in the absence of cell lysate. Enzyme activity was expressed as the amount of fluorescence produced per mg protein/h.

[1] = tested on: LA-N-5 human neuroblastoma cells; experiment: Cell viability / cell death by MTT assay; assay type: cell-based
Experimental: Cells were plated in 24-well culture plates containing 500 μl media. After drug treatment, 50 μl MTT (5 mg/ml in PBS) was added and incubated for 20 min at 37° C. An aliquot of 500 μl of 10% sodium dodecyl sulfate in 0.01 N HCl was added. After incubating overnight, the absorbance at 570 nm was determined by spectrophotometry. Cell viability was calculated as percent cell survival by dividing absorbance [treatment-blank] by absorbance [control-blank], where treatment is the reading for the treated cells, control is for vehicle-treated cells and blank is for MTT added to the media without cells.
LA-N-5 human neuroblastoma cells were grown in DMEM supplemented with 10% fetal bovine serum and 1% gentamicin. […] Cell death was measured by the MTT method (Cho et al., 2000a; Cho et al., 2000b; Cho et al., 2000c).

LA-N-5 cells = experiment: DNA fragmentation assay (Hoechst 33285); assay type: cell-based, human; conditions: LY-294002 30 μM, C2 ceramide 25 μM
Experimental: Quantification of DNA fragments was performed as described previously (Dawson et al., 1997). Briefly, cells were lysed in 5 mM Tris (pH 8.0) with 0.1% Triton X-100 and 20 mM EDTA and centrifuged at 20,000× g for 40 min at 4° C. For determination of DNA fragments lost in culture media, an aliquot of media was adjusted to a final concentration of 25 mM EDTA and centrifuged as described above. […] Fluorescence was detected by luminescent spectrometer using excitation 365 nm and emission 460 mn. DNA values were calculated using a standard curve obtained from the measurement of calf thymus DNA fluorescence.

Ras = Ras activation: guanine nucleotide binding and membrane association; assay type: cell-based, human; conditions: C2 ceramide 30 μM
Experimental: (§1) Cells were harvested in a lysis buffer containing 10 mM Tris (pH 7.4), 1 mM EGTA, 1 mM EDTA, 1 mM DTT, 25 mM NaF, 2 mM MgCl2 and 10 μg/ml aprotinin, leupeptin and pepstatin. For subcellular fractionation, the postnuclear cell extract was centrifuged at 100,000× g for 45 min to obtain a cytosolic fraction and the pellet was washed and resuspended in a lysis buffer to obtain a membrane fraction. Whole cell lysate (for caspase-3 and pFLAG-PPT1) or fractionated proteins (for p21Ras and GAP-43) were resolved by 10%, 12% or 15% of SDS-PAGE for GAP-43, caspase-3 and pFLAG-PPT1, or Ras, respectively. For immunoblotting with anti-Akt antibodies, cells were lysed in RIPA buffer consisting of 50 mM Tris (pH 7.4), 150 MM NaCl, 1 mM EGTA, 1% Nonidet P-40, 0.25% sodium deoxycholate, 1 mM NaF and protease inhibitors. After lysis on ice for 1 h, cell debris was removed by centrifugation at 3,000 rpm for 5 min and an equal amount of postnuclear cell extract loaded on 8.5% SDS-PAGE. Resolved proteins were transferred to membrane overnight, blots incubated with a blocking solution for 1 h, incubated with appropriate primary and secondary antibodies and the signals detected by ECL.
Cells (10×10^6) were washed and incubated with 0.8 mCi/ml ^32Pi for 4 h in phosphate-free DMEM. […] Cell lysate was immunoprecipitated with monoclonal anti-Ras and bound nucleotides eluted with 1 mM EDTA/25 μM GDP and GTP were analyzed by TLC using 0.75 M KH2PO4 (pH 3.5). After autoradiography, the radioactive spots corresponding to GDP and GTP were counted.
p21^Ras is a key regulator in the signaling pathways involved in variety of events such as cell proliferation, transcription and apoptosis. […] Therefore, the subcellular localization of Ras protein was analyzed after C2-ceramide treatment. Cells were treated with C2 ceramide (30 μM), harvested at 10 min and 60 min and the membrane fraction (100,000× g pellet) analyzed by immunoblotting.

PPT1 = molecular target: T1, PPT1 (Homo sapiens, UniProt P50897); experiment: In vitro PPT1 activity assay, [14C]palmitoyl peptide substrates, cell extract; conditions: read-out: inhibition in an in vitro assay (PPT)
T1 sequence (P50897 28-306): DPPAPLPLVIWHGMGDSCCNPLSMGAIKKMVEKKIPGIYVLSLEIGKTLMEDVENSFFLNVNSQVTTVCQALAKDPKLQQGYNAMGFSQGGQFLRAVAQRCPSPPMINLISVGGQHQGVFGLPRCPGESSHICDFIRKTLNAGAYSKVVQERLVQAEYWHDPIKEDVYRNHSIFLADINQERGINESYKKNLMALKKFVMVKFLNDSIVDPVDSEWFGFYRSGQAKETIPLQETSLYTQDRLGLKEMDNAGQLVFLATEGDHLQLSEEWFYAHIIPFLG
Experimental: Incubations were performed for 20 min at 37° C. and reactions terminated by addition of 1 ml of chloroform/methanol/2N HCl (2:1:0.06, v/v). After the centrifugation, organic phase was analyzed by HPTLC using n-butanol/pyridine/acetic acid/water (45:30:9:36, v/v) and [14C] palmitate release was quantified.
The peptide sequence, AcGCVKIKK (a palmitoylation site in K-Ras), was modified by substituting the SH group of cysteine with NH2 to generate diamino propionic acid, which was then acylated with palmitate (AcG-palmitoyl diamino propionate-VKIKK). […] In another set of experiments, the unmodified peptide itself (AcGCVKIKK) was used as a control to exclude the possibility of a nonspecific effect of the sequence on PPT activity.
In brief, the cell sonicate was incubated in the assay mixture containing 50 mM sodium citrate (pH 4.0) and IRY([^4C]palmitoylated)CWLRR octapeptide (2,000-4,000 cpm) for 20 min at 37° C. For the pH profile of PPT1 activity, 50 mM sodium citrate (pH 5 or 6) or 50 mM Tris-HCl (pH 7.4) was used with other conditions remaining the same. After addition of 1 ml of chloroform/methanol/2N HCl (2:1:0.06, by volume) and centrifugation, the organic phase was dried, reconstituted sample analyzed by HPTLC using n-butanol/pyridine/acetic acid/water (45:30:9:36, by volume) and the radioactive spot corresponding to [^14C] palmitate was counted.
PPT1 activity was measured as described above. In brief, the cell sonicate was incubated in the assay mixture (50 mM sodium citrate (pH 4.0) for [^14C]palmitoylated [sequence] Po peptide substrate (3,000-4,000 cpm) or 50 mM Tris (pH 7.4) for [^14C]palmitoylated MLCCMRR GAP43 peptide substrate) for 20 min at 37° C. After organic extraction, samples were analyzed by HPTLC using n-butanol/pyridine/acetic acid/water (45:30:9:36, by volume) and the radioactive spot corresponding to [^14C] palmitate was counted.

[2] = tested on: COS cells and embryonic neuron primary cultures
Akt = Akt phosphorylation immunoblot; assay type: cell-based, human; conditions: insulin 5 min; LY294002 pretreatment; vector-transfected cells
Experimental: as §1, with “After lysis on ice for 1 h, cell debris was removed by centrifugation at 3,000 rpm for 5 min and an equal amount of postnuclear cell extract loaded on 8.5% SDS-PAGE.” left out
To further investigate the downstream pathway by which PPT1 exerts protection against apoptosis, the activation of Akt was examined in control and PPT1 overexpressing cells. […] Therefore, the activation of Akt was analyzed by immunoblotting the cell extracts with an antibody specific to phosphorylated Akt (Ser473). […]

Compound: CCCCCCCCCCCCC/C=C/[C@@H](O)[C@H](CO)NC(C)=O [C2 ceramide]
activation of caspase 3 (caspase 3): time-dependent activation of caspase 3
death of cells (MTT) ([1]; 30 μM C2-ceramide alone, 6 h): about 10%
cell death (MTT assay) ([1]; LY-294002 30 μM, C2 ceramide 25 μM, 24 hrs): about 50%
DNA fragmentation (LA-N-5 cells): increase in DNA fragmentation
GTP/(GDP+GTP) ratio increase over control (Ras; 10 min): 33%
membrane-association of Ras (Ras; 10 min and 60 min): time-dependent increase in membrane-association of Ras
GTP/(GDP+GTP) ratio increase over control (Ras; 60 min): 85%

inhibition at 20 µM (PPT1): 85%
effect on COS cells and embryonic neuron primary cultures [2]: much less effect
Compound: CCCCCCCCCCCCCCCC(=O)NC[C@H](NC(=O)CNC(C)=O)C(=O)N[C@H](C(=O)N[C@@H](CCCCN)C(=O)N[C@H](C(=O)N[C@@H](CCCCN)C(=O)N[C@@H](CCCCN)C(N)=O)[C@@H](C)CC)C(C)C [DAP1, AcG-palmitoyl diamino propionate-VKIKK] (Ac-G[Dap](Palmitoyl)VKIKK-NH2)
toxicity to non-dividing cells (non-dividing cells): does not appear to be toxic

Compound: insulin: growth factor used as positive control for Akt activation
phosphorylation of Akt (Ser473) (Akt): induced significant phosphorylation of Akt
